Measurements reported in the supplement of paper PMC11208160.

assay: recombinant UMI read abundance after kanamycin selection (control-corrected) (log10(CPM+1)); higher = more efficient recombination; extreme values may be limits of the assay; sequences stand for … in AGTGCAGAGAAAATCGGCCAGTTTTCTCTGCCTGCAGTCCGCATGCCGTGGGACCCCTTGGGTTCTAACCTGTTGCCTAGATTTATGCAGCGGACTGCCTTTCTCCCAAAGTGATAAACCGG…AGGTTGGTTTCACT; site = the 11-nt donor
Description: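 Pooled E. coli donor-specificity screen for the IS621 bridge recombinase. Each library member carries a reprogrammed 11-nt donor and a full-length LE bridge RNA expressed in cis from the natural promoter, with a paired donor-binding loop (8-nt LDG + 4-nt RDG) and a target-binding loop fixed to T5. It is co-electroporated with a T5 target plasmid; recombinase is induced with 0.07 mM IPTG and recombinants are selected on kanamycin. UMIs are counted as CPM, averaged over two biological replicates and corrected by the unselected control. Molecule = full bridge RNA written as DNA, built from the T5 scaffold: LDG = donor specificity nt 1-8, RDG = reverse complement of nt 8-11.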
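Further: IS621 bridge recombinase in Escherichia coli cells against a fixed T5 target plasmid.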

| Sequence | recombinant UMI read abundance (log10) |
| --- | --- |
| AACCTCCCATGGACCGGTTTTCCCGGTAATCCGTATTTGGC (site AACCTCCCTGC) | 0 |
| AACCTTCCATGGACCGGTTTTCCCGGTAATCCGTATTTGCC (site AACCTTCCTGG) | 0 |
| AACGAAACATGGACCGGTTTTCCCGGTAATCCGTATTTGCC (site AACGAAACTGG) | 2.4 |
| AACGGGGCATGGACCGGTTTTCCCGGTAATCCGTATTTGCG (site AACGGGGCTCG) | 1.19 |
| AACGGTACATGGACCGGTTTTCCCGGTAATCCGTATTTGGG (site AACGGTACTCC) | 0.0069 |
| AACGTGTCATGGACCGGTTTTCCCGGTAATCCGTATTTGAC (site AAAGTGTCTGT) | 0 |
| AACGTGTCATGGACCGGTTTTCCCGGTAATCCGTATTTGAC (site AACGTGTCTGT) | 0 |
| AACGTGTCATGGACCGGTTTTCCCGGTAATCCGTATTTGAC (site AAGGTGTCTGT) | 0 |
| AACGTGTCATGGACCGGTTTTCCCGGTAATCCGTATTTGAC (site AATGTGTCTGT) | 0 |
| AACTCAGCATGGACCGGTTTTCCCGGTAATCCGTATTTGTA (site AACTCAGCTTA) | 1.62 |
| AACTCCGCATGGACCGGTTTTCCCGGTAATCCGTATTTGAC (site AACTCCGCTGT) | 1.92 |
| AACTCCTCATGGACCGGTTTTCCCGGTAATCCGTATTTGCC (site AACTCCTCTGG) | 1.8 |
| AACTCCTCATGGACCGGTTTTCCCGGTAATCCGTATTTGCC (site CACTCCTCTGG) | 2.43 |
| AACTCCTCATGGACCGGTTTTCCCGGTAATCCGTATTTGCC (site GACTCCTCTGG) | 1.42 |
| AACTCCTCATGGACCGGTTTTCCCGGTAATCCGTATTTGCC (site TACTCCTCTGG) | 2.61 |
| AACTCTACATGGACCGGTTTTCCCGGTAATCCGTATTTGTG (site AACTCTACTCA) | 0.146 |
| AACTGCACATGGACCGGTTTTCCCGGTAATCCGTATTTGCT (site AACTGCACTAG) | 1.96 |
| AACTTGCCATGGACCGGTTTTCCCGGTAATCCGTATTTGGC (site AACTTGCCTGC) | 0 |
| AACTTGGCATGGACCGGTTTTCCCGGTAATCCGTATTTGGA (site AACTTGGCTTC) | 0.368 |
| AACTTGGCATGGACCGGTTTTCCCGGTAATCCGTATTTGGA (site CACTTGGCTTC) | 0.467 |
| AACTTGGCATGGACCGGTTTTCCCGGTAATCCGTATTTGGA (site GACTTGGCTTC) | 0.439 |
| AACTTGGCATGGACCGGTTTTCCCGGTAATCCGTATTTGGA (site TACTTGGCTTC) | 0.393 |
| AAGAACGCATGGACCGGTTTTCCCGGTAATCCGTATTTGGG (site AAGAACGCTCC) | 0.564 |
| AAGAACGCATGGACCGGTTTTCCCGGTAATCCGTATTTGGG (site AAGCACGCTCC) | 0.0226 |

| Sequence | recombinant UMI read abundance (log10) |
| --- | --- |
| AAGAACGCATGGACCGGTTTTCCCGGTAATCCGTATTTGGG (site AAGGACGCTCC) | 0.0122 |
| AAGAACGCATGGACCGGTTTTCCCGGTAATCCGTATTTGGG (site AAGTACGCTCC) | 0.0143 |
| AAGAAGCCATGGACCGGTTTTCCCGGTAATCCGTATTTGCA (site AAGAAGCCTTG) | 1.32 |
| AAGAAGCCATGGACCGGTTTTCCCGGTAATCCGTATTTGCA (site AGGAAGACTTG) | 0.00613 |
| AAGACGACATGGACCGGTTTTCCCGGTAATCCGTATTTGGA (site AAGACGACTTC) | 0.804 |
| AAGCACCCATGGACCGGTTTTCCCGGTAATCCGTATTTGGG (site AAGCACACTCC) | 0.0118 |
| AAGCACCCATGGACCGGTTTTCCCGGTAATCCGTATTTGGG (site AAGCACCCTCC) | 0.0505 |
| AAGCACCCATGGACCGGTTTTCCCGGTAATCCGTATTTGGG (site AAGCACGCTCC) | 0.00747 |
| AAGCACCCATGGACCGGTTTTCCCGGTAATCCGTATTTGGG (site AAGCACTCTCC) | 0.371 |
| AAGCAGACATGGACCGGTTTTCCCGGTAATCCGTATTTGGA (site AAGCAGACTTC) | 1.25 |
| AAGCAGTCATGGACCGGTTTTCCCGGTAATCCGTATTTGAC (site AAGCAGTCTGT) | 2.88 |
| AAGCATGCATGGACCGGTTTTCCCGGTAATCCGTATTTGGG (site AAGCAAGCTCC) | 0.0205 |
| AAGCATGCATGGACCGGTTTTCCCGGTAATCCGTATTTGGG (site AAGCACGCTCC) | 0.00447 |
| AAGCATGCATGGACCGGTTTTCCCGGTAATCCGTATTTGGG (site AAGCAGGCTCC) | 0.0127 |
| AAGCATGCATGGACCGGTTTTCCCGGTAATCCGTATTTGGG (site AAGCATGCTCC) | 0.297 |
| AAGCCGCCATGGACCGGTTTTCCCGGTAATCCGTATTTGGC (site AAGCCGCCTGC) | 0 |
| AAGCCTTCATGGACCGGTTTTCCCGGTAATCCGTATTTGGT (site AAGCCTTCTAC) | 0.585 |
| AAGCCTTCATGGACCGGTTTTCCCGGTAATCCGTATTTGGT (site CAGCCTTCTAC) | 0.357 |
| AAGCCTTCATGGACCGGTTTTCCCGGTAATCCGTATTTGGT (site GAGCCTTCTAC) | 0.134 |
| AAGCCTTCATGGACCGGTTTTCCCGGTAATCCGTATTTGGT (site TAGCCTTCTAC) | 0.12 |
| AAGCGTCCATGGACCGGTTTTCCCGGTAATCCGTATTTGCG (site AAGCGTCCTCG) | 1.06 |
| AAGCGTTCATGGACCGGTTTTCCCGGTAATCCGTATTTGTT (site AAGCGTTCTAA) | 1.52 |
| AAGCTCACATGGACCGGTTTTCCCGGTAATCCGTATTTGAT (site AAGCTCACTAT) | 1.97 |
| AAGCTCACATGGACCGGTTTTCCCGGTAATCCGTATTTGAT (site CAGCTCACTAT) | 1.5 |

| Sequence | recombinant UMI read abundance (log10) |
| --- | --- |
| AAGCTCACATGGACCGGTTTTCCCGGTAATCCGTATTTGAT (site GAGCTCACTAT) | 0.291 |
| AAGCTCACATGGACCGGTTTTCCCGGTAATCCGTATTTGAT (site TAGCTCACTAT) | 1.55 |
| AAGGACCCATGGACCGGTTTTCCCGGTAATCCGTATTTGAA (site AAGGACCCTTT) | 1.1 |
| AAGGACGCATGGACCGGTTTTCCCGGTAATCCGTATTTGCC (site AAGGACGCTGG) | 2.85 |
| AAGGAGCCATGGACCGGTTTTCCCGGTAATCCGTATTTGGA (site AAGGAGCCTTC) | 0.02 |
| AAGGCGACATGGACCGGTTTTCCCGGTAATCCGTATTTGCT (site AAGGCGACTAG) | 2.18 |
| AAGGGACCATGGACCGGTTTTCCCGGTAATCCGTATTTGGT (site AAGGGACCTAC) | 0.00499 |
| AAGGGGCCATGGACCGGTTTTCCCGGTAATCCGTATTTGTG (site AAGGGGCCTCA) | 0.00547 |
| AAGGGTCCATGGACCGGTTTTCCCGGTAATCCGTATTTGAG (site AAGGGTCCTCT) | 0.405 |
| AAGGTGCCATGGACCGGTTTTCCCGGTAATCCGTATTTGAT (site AAGGTGCCTAT) | 0.438 |
| AAGTAAGCATGGACCGGTTTTCCCGGTAATCCGTATTTGGA (site AAGTAAGCTTC) | 1.78 |
| AAGTATGCATGGACCGGTTTTCCCGGTAATCCGTATTTGGA (site AAATATGCTTC) | 0.814 |
| AAGTATGCATGGACCGGTTTTCCCGGTAATCCGTATTTGGA (site AACTATGCTTC) | 1.43 |
| AAGTATGCATGGACCGGTTTTCCCGGTAATCCGTATTTGGA (site AAGTATGCTTC) | 1.96 |
| AAGTATGCATGGACCGGTTTTCCCGGTAATCCGTATTTGGA (site AATTATGCTTC) | 1.04 |
| AAGTCAACATGGACCGGTTTTCCCGGTAATCCGTATTTGTG (site AAGTCAACTCA) | 0.011 |
| AAGTCCACATGGACCGGTTTTCCCGGTAATCCGTATTTGCC (site AAGTCCACTGG) | 1.61 |
| AAGTCCGCATGGACCGGTTTTCCCGGTAATCCGTATTTGAT (site AAGTCCGCTAT) | 1.53 |
| AAGTCGACATGGACCGGTTTTCCCGGTAATCCGTATTTGGG (site AAGTCGACTCC) | 0.0303 |
| AAGTCGACATGGACCGGTTTTCCCGGTAATCCGTATTTGGG (site CAGTCGACTCC) | 0.0471 |
| AAGTCGACATGGACCGGTTTTCCCGGTAATCCGTATTTGGG (site GAGTCGACTCC) | 0.0282 |
| AAGTCGACATGGACCGGTTTTCCCGGTAATCCGTATTTGGG (site TAGTCGACTCC) | 0.0179 |
| AAGTCTACATGGACCGGTTTTCCCGGTAATCCGTATTTGTA (site AAGTCTACTTA) | 0.646 |
| AAGTTCCCATGGACCGGTTTTCCCGGTAATCCGTATTTGTG (site AAGTTCCCTCA) | 0.111 |
